row,Structure (SMILES),melting point [°C]
1,OCc1[nH]c(=S)n(C2CCc3ccccc3C2)c1CO (centres undefined),199 to 200
2,CC(=O)CSc1cc(C(C)(C)C)c(O)c(C(C)(C)C)c1,105 to 106
3,Cn1nc(C(F)(F)F)cc1Oc1cc(C#N)cc(Oc2cc(C(F)(F)F)nn2C)c1,139
4,COC(=O)c1sc2cc(C(F)(F)F)ccc2c1NC(C)=O,204 to 205
5,O[C@@H]1CNCC[C@H]1Sc1ccccc1 (relative stereo),135 to 136
6,O=C(O)c1cccc([N+](=O)[O-])c1Nc1ccccc1Cl,213 to 215
7,c1ccc(C2COc3ccccc3C2)cc1 (centres undefined),54 to 56
8,COC(=O)c1ccc(OC)c(NC(=NCl)c2ccccc2)c1,120
9,Nc1ccc2c(=O)[nH]c(=O)n(-c3ccccc3)c2n1,> 300
10,CCn1c2ccccc2c2cc(/C=C(\C#N)c3cccnc3)ccc21,131 to 133
11,S=c1nc2ccc(Br)cn2c(=S)n1-c1ccc(Br)cn1,77
12,CC1=CC(=O)C(C(=O)Cc2ccccc2)C(=O)O1 (centres undefined),150 to 151
13,COc1ccc2c(-c3ccccc3)c([N+](=O)[O-])oc2c1,100 to 106
14,COc1c(C)cc2[nH]c(S(=O)Cc3nccc(C)c3C)nc2c1C (centres undefined),161
15,CSc1cccc(C2CC(=O)C=C(O)C2)c1 (centres undefined),141
16,O=C1C(=O)c2c(nc3ccccn23)-c2cccc(Cl)c21,> 260
17,CCOC(=O)c1c(N2CCN(C)CC2)c2ccccc2n(C)c1=O,144 to 148
18,CC(C)Nc1nc(-c2ccccc2)c(-c2ccc(=O)n(C(C)C)n2)s1,138 to 139
19,O=C(NCCc1cncn1Cc1ccc(Cl)cc1)[C@H]1CN(Cc2ccccc2)CCN1C(=O)NC1CCCCC1,116
20,O=C(OCc1cc(OCCCBr)cc(OCCCBr)c1)c1ccccc1,85 to 87.5
21,COc1ccc(C(=O)Nc2ccc(C)c(C)c2)cc1N,138 to 142
22,COC(=O)C(C)(C)Cc1c(SC(C)(C)C)c2cc(OCc3ccc4ccccc4n3)ccc2n1Cc1ccc(Cl)cc1,166 to 167
23,CCn1cc(C(=O)NCc2ccc(Cl)cc2)c(=O)c2cc(CN(C)C[C@@H](O)c3ccccc3)sc21,100 to 102
24,Cc1[nH]c(C(=O)N2CCCC2)c(C)c1-c1nc2ccc(C(=O)c3ccccc3)cc2[nH]1,155 to 157
25,Cc1ccc(C)c(C2CC(=O)C=C(N)C2)c1 (centres undefined),169 to 170

row,Structure (SMILES),melting point [°C]
1,O=C(CCCCl)c1cc2c(s1)SCCNC2=O,124 to 125
2,COc1ccc(C[C@@H]2COc3ccc(OCc4ccc5ccccc5n4)cc3[C@H]2O)cc1OC (relative stereo),175
3,CC1(C)CC(O)(C(F)(F)F)C(Nc2cccc3[nH]c(=O)ccc23)c2cc(O)c(Cl)cc21 (centres undefined),158
4,COc1ccc(Cc2cnc(NCCSCc3csc(CN(C)C)n3)[nH]c2=O)cn1,137 to 138
5,CC1(C)C(=O)Nc2cc3oc(Cc4ccncc4)nc3cc21,208 to 211
6,Nc1ncc(-c2ccc3nnn(Cc4ccc5ncccc5c4)c3n2)cn1,244 to 246
7,CCOC(=O)c1ncc2[nH]c3ccc(C4COC(O)C4)cc3c2c1C (centres undefined),177 to 180
8,CCOCc1nc2c(N)nc3cc(-c4cccc(C(=O)N5CCOCC5)c4)cnc3c2n1CC(C)(C)F,167 to 168
9,CCCCCCOc1ccc(C(=O)Nc2ccc(C(=O)O)cc2)cc1C12CC3CC(CC(C3)C1)C2,256 to 257
10,OC(COc1ccccc1)c1ccccc1 (centres undefined),61 to 62
11,Cc1cccc(N2C(=S)SCC2(C)O)n1 (centres undefined),150 to 153
12,"CC(O)(c1cccnc1)C1CCN(C[C@@]23C[C@@H](c4ccccc42)c2ccc(Cl)cc23)CC1 (single isomer, unassigned)",87 to 93
13,Cc1nc(-c2ccc([N+](=O)[O-])cc2)c(-c2ccc([N+](=O)[O-])cc2)[nH]1,230 to 232
14,Cc1sc(CCc2ccc(C=O)cc2)nc1-c1ccccc1,66 to 67
15,O=C(CCl)c1ccc2c(c1)CCO2,85 to 87
16,COc1cccc2sc(NC(=O)CO)nc12,193 to 195
17,CC(C)C(=O)NCCCC(=O)OC1c2ccccc2C(=O)N1c1ccc2ccc(Cl)nc2n1 (centres undefined),208
18,O=C(Nc1ccc2[nH]ncc2c1)OC(c1cccc(C(=O)Nc2ccccc2)c1)[C@@H]1CCCCN1 (some centres undefined),150
19,N#Cc1ccc(-c2cn(-c3ccc(I)cc3)c(SCc3ccccn3)n2)cc1,180 to 184
20,Cc1cc2c(c(C(C)(C)C)c1)OC(=O)C2OC(=O)CCc1cc(C(C)(C)C)c(O)c(C(C)(C)C)c1 (centres undefined),151 to 154
21,Cc1cc(-c2cccc(NC(=O)N[C@@H]3c4cc(C#N)ccc4OC(C)(C)[C@H]3O)c2)no1,110 to 120
22,COC(=O)c1ccc(C#CC(=O)c2ccc3c(c2)C(C)(C)CCC3)cc1O,114 to 116
23,CC(C)(C)N=NC(C)(C)SC#N,29 to 31
24,C=CCc1cc(C)c2c(c1O)C(=O)CC2,41 to 45
25,Nc1ccc(-c2ccc(=O)[nH]n2)cc1Br,266 to 267

row,Structure (SMILES),melting point [°C]
1,C=CCOc1ccccc1N(CC(O)CNC(C)C)S(C)(=O)=O (centres undefined),139 to 141
2,COc1ccccc1NC(=O)Nc1nc(Oc2ccc3ccccc3c2)nc(N(CCC(=O)O)Cc2ccc(C)cc2)n1,202 to 205
3,Cc1ccc(S(C)(=O)=O)cc1-c1n[nH]c2nc(Oc3ccc(F)cc3F)ncc12,133 to 135
4,CN1CCN(c2cccc3c2C[C@H](NC(=O)c2ccccc2OS(C)(=O)=O)CC3)CC1,144 to 145
5,CN(C)C1CCC(Nc2nc3cc(Cl)c(Cl)cc3nc2-c2ccncc2)CC1 (centres undefined),183 to 185
6,CCc1c(C(=O)Cl)cnn1-c1ccc(Cl)cc1,105 to 107
7,C#Cc1ccc(Nc2c(C(=O)NOCCO)ccc(F)c2F)c(Cl)c1,155 to 157
8,CC1(C)OCC(c2nc3c(C(F)(F)F)cccc3c(O)c2C(=O)Nc2nccs2)O1 (centres undefined),250
9,COc1ccc(S(=O)(=O)N(C)C)c(S(N)(=O)=O)c1,106 to 109
10,Nc1cc(Sc2ccc3c(C(=O)Nc4ccc(F)c(C(F)(F)F)c4)cccc3c2)ncn1,221
11,Fc1ccc(Cn2c(NC3CCN(CCN(Cc4ccccc4)Cc4ccccc4)CC3)nc3ccccc32)cc1,116
12,CC(=O)Nc1ccc2nc(NC3=NCCN3)[nH]c2c1,294
13,CC(C)n1c(CCC2C[C@@H](O)CC(=O)O2)c(-c2ccc(F)cc2)c(-c2ccccc2)c1C(=O)Nc1ccc(F)cc1 (some centres undefined),98 to 99
14,Cc1nc(C)n(CCOCC2=C(C(=O)OC(C)C)C(c3ccccc3Cl)C(C(=O)Nc3ccccn3)=CN2)c1C (centres undefined),180 to 182
15,CCOC(=O)CN1C(=O)[C@@H](N)[C@H](c2ccccc2)Sc2ccccc21,176 to 178
16,O=C(NC1CCCC1)c1cccc(-c2ccnc3c(C(=O)c4cccs4)cnn23)c1,207 to 209
17,CCCCCCCCCCCCCCOCC(O)CO (centres undefined),56 to 57
18,CC(C)Cn1c(C(=O)O)c(-c2ccccc2F)c2cc(OCc3ccccc3)ccc2c1=O,178 to 179
19,Brc1ccc(-c2ccnc(-c3ccccc3)n2)cc1,107
20,COc1ccccc1N1CCN(CC(O)COc2cccc(C(=O)C=CN(C)C)c2)CC1 (centres undefined),131
21,Cc1ccc(S(=O)(=O)n2cc(I)nc2C)cc1,112 to 114
22,O=C(Cc1ccc(F)cc1F)c1ccc(Cl)nc1,93 to 95
23,O=C(O)CN1C(=O)C(=Cc2ccccc2Cl)SC1=S,238 to 242
24,CC(C)(C)OC(=O)N1CCC(O)(Cc2ccc3ccccc3n2)CC1,119 to 121
25,COc1cc2ncnc(N3CCc4c(C)cccc43)c2cc1OC,174 to 175

row,Structure (SMILES),melting point [°C]
1,O=C1CCCc2c1ccc(O)c2Br,183 to 186
2,CC[C@H]1CNC[C@H]1NC(=O)OC(C)(C)C,63.5 to 65.5
3,CCCCC(=N)NC(=O)Nc1ccc(C)cc1,159 to 160
4,CC(C)CCCC(C)NC(=O)Oc1ccc(Oc2ccccc2)cc1F (centres undefined),37 to 41
5,COC(=O)c1c(Br)cc(Br)cc1NC(=O)NCc1ccccc1,> 280
6,COC(=O)/C=C(C)/C=C/C1(c2cc3c(cc2C)C(C)(C)CCC3(C)C)CC=CS1 (centres undefined),152 to 153
7,CC(=O)Nc1cc2c(c3c1OC(C)(C)C3)C(c1ccccc1)=NC(C)(C)C2,175 to 180
8,COc1ccc2c(c1)c(CC(=O)OCC(=O)O)c(C)n2C(=O)c1ccccc1C(F)(F)F,121 to 122
9,O=C(O)C1=Cc2cc(Cl)c(I)cc2OC1C(F)(F)F (centres undefined),225 to 226
10,O=C1CCc2ccc(Oc3cccc(CN4CCN(c5cccc(Cl)c5Cl)CC4)c3)cc2N1,182 to 183
11,Cc1ccc(S(=O)(=O)N2CCC[C@H](CC(=O)NC(C)C)c3ccccc32)cc1,131 to 133
12,CC1CCN(c2ccc(-c3nc(C(=O)Nc4nccs4)c(-c4ccc(Cl)cc4)[nH]3)cc2)CC1,> 250
13,OCc1cc(Cl)ccc1I,115 to 117
14,CC1=C(C(=O)OCCCO[N+](=O)[O-])C(c2cccc([N+](=O)[O-])c2)C(C(=O)OCCCO[N+](=O)[O-])=C(N)N1 (centres undefined),145 to 146
15,CN1CCC(C(=NNc2ccccc2)c2ccccc2F)CC1,131 to 134
16,O=S(=O)(c1ccccc1)C(CCCCl)c1ccccc1 (centres undefined),110 to 112
17,Cc1oc(-c2ccco2)nc1COc1ccc(C=O)cn1,139 to 140
18,COCCNC(=O)c1cccc(-c2cccc3cc(Cc4cc(F)cc(C(F)(F)F)c4)sc23)c1,106 to 107
19,Cc1c(C(=O)O)oc2c(C(C)(C)C)cc(C(C)(C)C)c(O)c12,241 to 243
20,COC(=O)c1cc2c(Cl)cc(F)c(-n3c(=O)cc(C(F)(F)F)n(C)c3=O)c2o1,194 to 196
21,O=C(c1ccccc1Cl)c1cc2c(cc1NC=C[N+](=O)[O-])CCC2,225 to 226
22,COc1cc2c(Nc3ccc(Cl)cc3F)ncnc2cc1OCCN1CCSCC1,181 to 182
23,COC(=O)c1ccc(NN=CC(F)(F)F)cc1S(=O)(=O)NC(=O)Nc1nc(OC)nc(OC)n1,117 to 119
24,O=C1c2ccccc2C(Nc2ccccc2)N1CCCN1CC=C(c2ccccc2)CC1 (centres undefined),119
